Measurements taken from the supplement of paper PMC10307832.

Assays:
Experiment in all cases: relative viability (nuclei count vs DMSO), 5 days (fraction); higher = more cells survive
[1] = compound: C#Cc1cccc(Nc2ncnc3cc(OC)c(OCCCCCCC(=O)NO)cc23)c1 [CUDC-101] + CC1(C)CCC(c2ccc(Cl)cc2)=C(CN2CCN(c3ccc(C(=O)NS(=O)(=O)c4ccc(N[C@H](CCN5CCOCC5)CSc5ccccc5)c(S(=O)(=O)C(F)(F)F)c4)cc3)CC2)C1 [Navitoclax] (partner 0.5 µM)
Summary of the method: (§1)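 Cells from lung cancer lines were seeded into 1536-well plates and, one day later, dosed by pin tool. Treatments were either a single drug or a fixed dose of an anchor drug with five library-drug doses (not always all listed) in √10 steps. After 5 days, nuclei were stained in a one-step fixation (final 0.05% Triton X-100, 1% formaldehyde, 1 ug/ml Hoechst) and counted on 4× images, and relative viability is the treated-to-vehicle nuclei ratio, as the median of duplicate plates.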

[2] = compound: COc1cc(N2CCC(N3CCN(C)CC3)CC2)ccc1Nc1ncc(Cl)c(Nc2ccccc2S(=O)(=O)C(C)C)n1 [NVP-TAE684] + CC1(C)CCC(c2ccc(Cl)cc2)=C(CN2CCN(c3ccc(C(=O)NS(=O)(=O)c4ccc(N[C@H](CCN5CCOCC5)CSc5ccccc5)c(S(=O)(=O)C(F)(F)F)c4)cc3)CC2)C1 [Navitoclax] (partner 0.5 µM)
Summary of the method: as §1

[3] = compound: COc1cc(N2CCC(N3CCN(C)CC3)CC2)ccc1Nc1ncc(Cl)c(Nc2ccccc2S(=O)(=O)C(C)C)n1 [NVP-TAE684] + C[C@@H](Oc1cc(-c2cnn(C3CCNCC3)c2)cnc1N)c1c(Cl)ccc(F)c1Cl [Crizotinib] (partner 1 µM)
Summary of the method: as §1

[4] = compound: COc1cc2/c(=N/c3ccc(Br)cc3F)nc[nH]c2cc1OCC1CCN(C)CC1 [Vandetanib] + O=C(c1cc(Cc2n[nH]c(=O)c3ccccc23)ccc1F)N1CCN(C(=O)C2CC2)CC1 [Olaparib] (partner 8 µM)
Summary of the method: as §1

[5] = compound: COc1cc(N2CCC(N3CCN(C)CC3)CC2)ccc1Nc1ncc(Cl)c(Nc2ccccc2S(=O)(=O)C(C)C)n1 [NVP-TAE684] + Nc1nc2[nH]cc(CCc3ccc(C(=O)N[C@@H](CCC(=O)O)C(=O)O)cc3)c2c(=O)[nH]1 [Pemetrexed] (partner 0.2 µM)
Summary of the method: as §1

## NCI-H1355
[1]; first compound 0.01 µM
  relative viability: 1.01
[1]; first compound 0.03162 µM
  relative viability: 0.735
[1]; first compound 0.1 µM
  relative viability: 0.939
[1]; first compound 0.3162 µM
  relative viability: 0.825
[1]; first compound 1 µM
  relative viability: 0.73
[2]; first compound 0.2 µM
  relative viability: 0.882
[2]; first compound 0.6325 µM
  relative viability: 0.992
[2]; first compound 2 µM
  relative viability: 0.622
[3]; first compound 0.2 µM
  relative viability: 1.09
[3]; first compound 0.6325 µM
  relative viability: 0.978
[3]; first compound 2 µM
  relative viability: 0.568
[4]; first compound 0.02 µM
  relative viability: 0.754
[4]; first compound 0.06325 µM
  relative viability: 0.665
[4]; first compound 0.2 µM
  relative viability: 0.734
[4]; first compound 0.6325 µM
  relative viability: 0.825
[4]; first compound 2 µM
  relative viability: 0.684
[5]; first compound 0.2 µM
  relative viability: 1.01
[5]; first compound 0.6325 µM
  relative viability: 0.984
[5]; first compound 2 µM
  relative viability: 0.793

## NCI-H596
[1]; first compound 0.01 µM
  relative viability: 1.06
[1]; first compound 0.03162 µM
  relative viability: 0.825
[1]; first compound 0.1 µM
  relative viability: 0.942
[1]; first compound 0.3162 µM
  relative viability: 0.938
[1]; first compound 1 µM
  relative viability: 0.866
[2]; first compound 0.2 µM
  relative viability: 0.936
[2]; first compound 0.6325 µM
  relative viability: 0.969
[2]; first compound 2 µM
  relative viability: 0.509
[3]; first compound 0.2 µM
  relative viability: 0.974
[3]; first compound 0.6325 µM
  relative viability: 0.886
[3]; first compound 2 µM
  relative viability: 0.717
[4]; first compound 0.02 µM
  relative viability: 0.616
[4]; first compound 0.06325 µM
  relative viability: 0.62
[4]; first compound 0.2 µM
  relative viability: 0.726
[4]; first compound 0.6325 µM
  relative viability: 0.655
[4]; first compound 2 µM
  relative viability: 0.705
[5]; first compound 0.2 µM
  relative viability: 0.56
[5]; first compound 0.6325 µM
  relative viability: 0.43
[5]; first compound 2 µM
  relative viability: 0.45

## NCI-H23
[1]; first compound 0.01 µM
  relative viability: 0.801
[1]; first compound 0.03162 µM
  relative viability: 0.796
[1]; first compound 0.1 µM
  relative viability: 0.817
[1]; first compound 0.3162 µM
  relative viability: 0.849
[1]; first compound 1 µM
  relative viability: 0.791
[2]; first compound 0.2 µM
  relative viability: 0.806
[2]; first compound 0.6325 µM
  relative viability: 0.785
[2]; first compound 2 µM
  relative viability: 0.607
[3]; first compound 0.2 µM
  relative viability: 0.463
[3]; first compound 0.6325 µM
  relative viability: 0.451
[3]; first compound 2 µM
  relative viability: 0.254
[4]; first compound 0.02 µM
  relative viability: 0.346
[4]; first compound 0.06325 µM
  relative viability: 0.275
[4]; first compound 0.2 µM
  relative viability: 0.328
[4]; first compound 0.6325 µM
  relative viability: 0.343
[4]; first compound 2 µM
  relative viability: 0.335
[5]; first compound 0.2 µM
  relative viability: 0.719
[5]; first compound 0.6325 µM
  relative viability: 0.556
[5]; first compound 2 µM
  relative viability: 0.395

## HCC-366
[1]; first compound 0.01 µM
  relative viability: 1.1
[1]; first compound 0.03162 µM
  relative viability: 0.875
[1]; first compound 0.1 µM
  relative viability: 1.06
[1]; first compound 0.3162 µM
  relative viability: 1.08
[1]; first compound 1 µM
  relative viability: 0.844
[2]; first compound 0.2 µM
  relative viability: 1.18
[2]; first compound 0.6325 µM
  relative viability: 0.999
[2]; first compound 2 µM
  relative viability: 1.02
[3]; first compound 0.2 µM
  relative viability: 0.923
[3]; first compound 0.6325 µM
  relative viability: 0.648
[3]; first compound 2 µM
  relative viability: 0.226
[4]; first compound 0.02 µM
  relative viability: 0.438
[4]; first compound 0.06325 µM
  relative viability: 0.34
[4]; first compound 0.2 µM
  relative viability: 0.389
[4]; first compound 0.6325 µM
  relative viability: 0.362
[4]; first compound 2 µM
  relative viability: 0.31
[5]; first compound 0.2 µM
  relative viability: 0.197
[5]; first compound 0.6325 µM
  relative viability: 0.178
[5]; first compound 2 µM
  relative viability: 0.227
